Measured values as given in patent publication US12441725B2, “ISO-citrate dehydrogenase (IDH) inhibitor” (ZHEJIANG METON PHARMACEUTICAL CO., LTD, priority 2019, dated 2025).

Key:
IDH1 R132C = molecular target: T1, IDH1 R132C (Homo sapiens, UniProt O75874, R132C); assay: Biochemical assay for IDH inhibition (NADPH fluorescence), mutant IDH1 R132C; details: 25 nM IDH1-R132C, 1 hour pre-incubation, in triplet
T1 construct: 6xHis
How it was run: (§1)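 The read-out was the linear-phase loss of NADPH fluorescence (340/460 nm) over 15 min, background-subtracted and normalized to DMSO wells, giving triplicate IC50 values. Beforehand, R132H (50 nM) or R132C (25 nM) was exposed to compound for 1 h at room temperature with 1.33 mM α-KG at pH 7.5, and the reaction was triggered by adding an 80 μM NADPH solution.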

[1] = molecular target: T2, IDH (endogenous IDH1 R132C) in HT1080 cell (Homo sapiens, UniProt O75874, R132C); assay: Cell-based assay for IDH inhibition (decrease of D-2-HG) in HT1080 cells; details: human fibrosarcoma cell line HT1080, 16 hours treatment, D-2-HG by LC-MS, in triplet
T2 construct: which harbor endogenous heterozygous IDH1 R132C and R132H mutation respectively and accumulate D-2-HG
How it was run: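 LC-MS/MS quantification of D-2-HG, normalized to glutamate, follows a 16 h compound exposure of IDH1 R132C HT1080 cells in DMEM with 10% FBS. Extraction uses pre-chilled 40% methanol/40% acetonitrile in water. Triplicate determinations; IC50 from D-2-HG levels relative to DMSO-treated cells.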

IDH1 R132H = molecular target: T3, IDH1 R132H (Homo sapiens, UniProt O75874, R132H); assay: Biochemical assay for IDH inhibition (NADPH fluorescence), mutant IDH1 R132H; details: 50 nM IDH1-R132H, 1 hour pre-incubation, in triplet
T3 construct: 6xHis
How it was run: as §1

T3 sequence (O75874 whole entry R132H): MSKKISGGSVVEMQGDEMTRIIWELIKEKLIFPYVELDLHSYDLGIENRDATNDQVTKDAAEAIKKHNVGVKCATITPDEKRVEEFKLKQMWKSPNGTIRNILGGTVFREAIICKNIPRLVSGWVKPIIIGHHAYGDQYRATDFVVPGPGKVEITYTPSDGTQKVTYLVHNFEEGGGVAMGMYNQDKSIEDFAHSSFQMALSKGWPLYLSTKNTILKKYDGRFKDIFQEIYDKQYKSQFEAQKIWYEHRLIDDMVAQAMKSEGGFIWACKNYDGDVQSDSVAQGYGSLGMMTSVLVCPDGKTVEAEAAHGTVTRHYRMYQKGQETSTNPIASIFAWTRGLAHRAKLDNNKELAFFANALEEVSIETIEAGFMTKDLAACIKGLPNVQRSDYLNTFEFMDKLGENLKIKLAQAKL
T1 sequence (O75874 whole entry R132C): as the sequence (O75874 whole entry R132H) above, with H132C counted along it
T2 sequence (O75874 2-414 R132C): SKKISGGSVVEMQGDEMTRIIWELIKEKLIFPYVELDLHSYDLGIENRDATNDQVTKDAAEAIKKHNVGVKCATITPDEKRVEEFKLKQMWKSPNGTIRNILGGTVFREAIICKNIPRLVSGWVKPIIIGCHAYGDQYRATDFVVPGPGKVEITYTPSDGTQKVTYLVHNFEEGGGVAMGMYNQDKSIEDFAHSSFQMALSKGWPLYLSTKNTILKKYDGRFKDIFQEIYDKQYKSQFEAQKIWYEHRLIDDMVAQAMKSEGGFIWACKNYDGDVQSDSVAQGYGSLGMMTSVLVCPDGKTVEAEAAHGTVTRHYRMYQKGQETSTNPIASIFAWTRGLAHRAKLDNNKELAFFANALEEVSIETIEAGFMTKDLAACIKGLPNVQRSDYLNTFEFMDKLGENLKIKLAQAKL

SMILES | IC50 (IDH1 R132C) | IC50 [1] | IC50 (IDH1 R132H)
CCN1Cc2c(ccnc2N[C@@H](C)c2cc(F)c(-c3cc(C4(C(F)(F)F)CC=NN4)ccn3)cc2F)C1=O (stereo partly drawn) [Compound 126, 4-(((1S)-1-(2,5-difluoro-4-(4-(5-(trifluoromethyl)-4,5-dihydro-1H-pyrazol-5-yl)pyridin-2-yl)phenyl)ethyl)amino)-2-ethyl-2,3-dihydro-1H-pyrrolo[3,4-c]pyridin-1-one] | 100 to 500 nM | 100 to 500 nM | < 100 nM
CCN1Cc2c(ccnc2N[C@@H](C)c2cc(F)c(-c3cc(NC(C)(C)C)cc(C)n3)cc2F)C1=O [Compound 128, (S)-4-((1-(4-(4-(tert-butylamino)-6-methylpyridin-2-yl)-2,5-difluorophenyl)ethyl)amino)-2-ethyl-2,3-dihydro-1H-pyrrolo[3,4-c]pyridin-1-one] | 100 to 500 nM | 100 to 500 nM | < 100 nM
CCN1Cc2c(ccnc2N[C@@H](C)c2cc(F)c(-c3cc(OC(C)(C)C)cc(C)n3)cc2F)C1=O [Compound 129, (S)-4-((1-(4-(4-(tert-butoxy)-6-methylpyridin-2-yl)-2,5-difluorophenyl)ethyl)amino)-2-ethyl-2,3-dihydro-1H-pyrrolo[3,4-c]pyridin-1-one] | < 100 nM | < 100 nM | < 100 nM
CCN1Cc2c(ccnc2N[C@@H](C)c2cc(F)c(-c3cc(C4(F)CC4)cc(C)n3)cc2F)C1=O [Compound 131, (S)-4-((1-(2,5-difluoro-4-(4-(1-fluorocyclopropyl)-6-methylpyridin-2-yl)phenyl)ethyl)amino)-2-ethyl-2,3-dihydro-1H-pyrrolo[3,4-c]pyridin-1-one] | < 100 nM | < 100 nM | < 100 nM
CCN1Cc2c(ccnc2N[C@@H](C)c2cc(F)c(-c3cc(C(C)(C)F)c(F)c(C)n3)cc2F)C1=O [Compound 133, (S)-4-((1-(2,5-difluoro-4-(5-fluoro-4-(2-fluoropropan-2-yl)-6-methylpyridin-2-yl)phenyl)ethyl)amino)-2-ethyl-2,3-dihydro-1H-pyrrolo[3,4-c]pyridin-1-one] | < 100 nM | < 100 nM | < 100 nM
CCN1Cc2c(ccnc2N[C@@H](C)c2cc(F)c(-c3nc(C)cc(C(C)(C)F)c3F)cc2F)C1=O [Compound 134, (S)-4-((1-(2,5-difluoro-4-(3-fluoro-4-(2-fluoropropan-2-yl)-6-methylpyridin-2-yl)phenyl)ethyl)amino)-2-ethyl-2,3-dihydro-1H-pyrrolo[3,4-c]pyridin-1-one] | < 100 nM | < 100 nM | < 100 nM
CCN1Cc2c(ccnc2N[C@@H](C)c2cc(F)c(-c3cc(C(C)(C)F)nc(OC)n3)cc2F)C1=O [Compound 141, (S)-4-((1-(2,5-difluoro-4-(6-(2-fluoropropan-2-yl)-2-methoxypyrimidin-4-yl)phenyl)ethyl)amino)-2-ethyl-2,3-dihydro-1H-pyrrolo[3,4-c]pyridin-1-one] | < 100 nM | < 100 nM | < 100 nM
CCN1Cc2c(ccnc2N[C@@H](C)c2cc(F)c(-c3cc(C(F)(F)F)cc(OC)n3)cc2F)C1=O [Compound 142, (S)-4-((1-(2,5-difluoro-4-(6-methoxy-4-(trifluoromethyl)pyridin-2-yl)phenyl)ethyl)amino)-2-ethyl-2,3-dihydro-1H-pyrrolo[3,4-c]pyridin-1-one] | 100 to 500 nM | 100 to 500 nM | < 100 nM
CCN1Cc2c(ccnc2N[C@@H](C)c2cc(F)c(-c3cc(C(F)(F)F)ncc3OCOC)cc2F)C1=O [Compound 145, (S)-4-((1-(2,5-difluoro-4-(5-(methoxymethoxy)-2-(trifluoromethyl)pyridin-4-yl)phenyl)ethyl)amino)-2-ethyl-2,3-dihydro-1H-pyrrolo[3,4-c]pyridin-1-one] | < 100 nM | 100 to 500 nM | < 100 nM
CCN1Cc2c(ccnc2N[C@@H](C)c2cc(F)c(-c3cc4c(cn3)COC4(C)C)cc2F)C1=O [Compound 146, (S)-4-((1-(4-(1,1-dimethyl-1,3-dihydrofuro[3,4-c]pyridin-6-yl)-2,5-difluorophenyl)ethyl)amino)-2-ethyl-2,3-dihydro-1H-pyrrolo[3,4-c]pyridin-1-one] | < 100 nM | < 100 nM | < 100 nM
CCN1Cc2c(ccnc2N[C@@H](C)c2cc(F)c(-c3cc(C(C)(C)F)c(COC)cn3)cc2F)C1=O [Compound 147, (S)-4-((1-(2,5-difluoro-4-(4-(2-fluoropropan-2-yl)-5-(methoxymethyl)pyridin-2-yl)phenyl)ethyl)amino)-2-ethyl-2,3-dihydro-1H-pyrrolo[3,4-c]pyridin-1-one] | < 100 nM | < 100 nM | < 100 nM
CCN1Cc2c(ccnc2N[C@@H](C)c2cc(F)c(-c3cc(C(C)(C)F)c(C(F)(F)F)cn3)cc2F)C1=O [Compound 148, (S)-4-((1-(2,5-difluoro-4-(4-(2-fluoropropan-2-yl)-5-(trifluoromethyl)pyridin-2-yl)phenyl)ethyl)amino)-2-ethyl-2,3-dihydro-1H-pyrrolo[3,4-c]pyridin-1-one] | < 100 nM | < 100 nM | < 100 nM

The remaining lines, values ahead:

IC50 (IDH1 R132C) | IC50 [1] | IC50 (IDH1 R132H) | SMILES
< 100 nM | < 100 nM | < 100 nM | CCN1Cc2c(ccnc2N[C@@H](C)c2cc(F)c(-c3cc(C(C)(C)F)c(C)cn3)cc2F)C1=O [Compound 127, (S)-4-((1-(2,5-difluoro-4-(4-(2-fluoropropan-2-yl)-5-methylpyridin-2-yl)phenyl)ethyl)amino)-2-ethyl-2,3-dihydro-1H-pyrrolo[3,4-c]pyridin-1-one]
100 to 500 nM | 100 to 500 nM | < 100 nM | CCN1Cc2c(ccnc2N[C@@H](C)c2cc(F)c(-c3cc(C(C)(C)F)ncn3)cc2F)C1=O [Compound 130, (S)-4-((1-(2,5-difluoro-4-(6-(2-fluoropropan-2-yl)pyrimidin-4-yl)phenyl)ethyl)amino)-2-ethyl-2,3-dihydro-1H-pyrrolo[3,4-c]pyridin-1-one]
< 100 nM | 100 to 500 nM | < 100 nM | CCN1Cc2c(ccnc2N[C@@H](C)c2cc(F)c(-c3cc(C(C)(C)F)ncc3OC)cc2F)C1=O [Compound 132, (S)-4-((1-(2,5-difluoro-4-(2-(2-fluoropropan-2-yl)-5-methoxypyridin-4-yl)phenyl)ethyl)amino)-2-ethyl-2,3-dihydro-1H-pyrrolo[3,4-c]pyridin-1-one]
< 100 nM | < 100 nM | < 100 nM | CCN1Cc2c(ccnc2N[C@@H](C)c2cc(F)c(-c3cc(C(C)(C)F)c(OC)cn3)cc2F)C1=O [Compound 135, (S)-4-((1-(2,5-difluoro-4-(4-(2-fluoropropan-2-yl)-5-methoxypyridin-2-yl)phenyl)ethyl)amino)-2-ethyl-2,3-dihydro-1H-pyrrolo[3,4-c]pyridin-1-one]
< 100 nM | < 100 nM | < 100 nM | CCN1Cc2c(ccnc2N[C@@H](C)c2cc(F)c(-c3cc(C(C)(C)F)c(Cl)cn3)cc2F)C1=O [Compound 136, (S)-4-((1-(4-(5-chloro-4-(2-fluoropropan-2-yl)pyridin-2-yl)-2,5-difluorophenyl)ethyl)amino)-2-ethyl-2,3-dihydro-1H-pyrrolo[3,4-c]pyridin-1-one]
< 100 nM | < 100 nM | < 100 nM | CCN1Cc2c(ccnc2N[C@@H](C)c2cc(F)c(-c3cc(C(C)(C)F)c(F)cn3)cc2F)C1=O [Compound 137, (S)-4-((1-(2,5-difluoro-4-(5-fluoro-4-(2-fluoropropan-2-yl)pyridin-2-yl)phenyl)ethyl)amino)-2-ethyl-2,3-dihydro-1H-pyrrolo[3,4-c]pyridin-1-one]
< 100 nM | < 100 nM | < 100 nM | CCN1Cc2c(ccnc2N[C@@H](C)c2cc(F)c(-c3cc(C(C)(C)C)ncc3O)cc2F)C1=O [Compound 138, (S)-4-((1-(4-(2-(tert-butyl)-5-hydroxypyridin-4-yl)-2,5-difluorophenyl)ethyl)amino)-2-ethyl-2,3-dihydro-1H-pyrrolo[3,4-c]pyridin-1-one]
100 to 500 nM | < 100 nM | < 100 nM | CCN1Cc2c(ccnc2N[C@@H](C)c2cc(F)c(-c3cc(C(C)(C)F)ncc3CF)cc2F)C1=O [Compound 139, (S)-4-((1-(2,5-difluoro-4-(5-(fluoromethyl)-2-(2-fluoropropan-2-yl)pyridin-4-yl)phenyl)ethyl)amino)-2-ethyl-2,3-dihydro-1H-pyrrolo[3,4-c]pyridin-1-one]
100 to 500 nM | 100 to 500 nM | < 100 nM | CCN1Cc2c(ccnc2N[C@@H](C)c2cc(F)c(-c3cc(C(F)(F)F)ncc3OC)cc2F)C1=O [Compound 143, (S)-4-((1-(2,5-difluoro-4-(5-methoxy-2-(trifluoromethyl)pyridin-4-yl)phenyl)ethyl)amino)-2-ethyl-2,3-dihydro-1H-pyrrolo[3,4-c]pyridin-1-one]
> 1000 nM | > 1000 nM | > 1000 nM | CCN1Cc2c(ccnc2N[C@@H](C)c2cc(F)c(-c3cc(C(F)(F)F)ncc3O)cc2F)C1=O [Compound 144, (S)-4-((1-(2,5-difluoro-4-(5-hydroxy-2-(trifluoromethyl)pyridin-4-yl)phenyl)ethyl)amino)-2-ethyl-2,3-dihydro-1H-pyrrolo[3,4-c]pyridin-1-one]
